Experimental data: US20120101032A1, “NOVEL MACROCYCLIC INHIBITORS OF HEPATITIS C VIRUS REPLICATION” (priority 2010, published 2012)

Tests used:
[1] = test system: hepatitis C replicon; assay: hepatitis C replicon EC50 assay; format: cell-based; details: Hepatitis C virus; hepatitis C replicon; read-out: EC50
Source text: NS3-NS4 inhibition activity can be determined using known assay methods.

[2] = target: NS3/NS4 complexes (Hepatitis C virus genotype 1a, UniProt P27958); assay: biochemical; details: NS3-NS4 activity; 23° C., pH 7.5, 25 μM NS4A peptide; read-out: IC50
NS3/NS4 complexes, sequence (P27958 1027-1657, one chain of several): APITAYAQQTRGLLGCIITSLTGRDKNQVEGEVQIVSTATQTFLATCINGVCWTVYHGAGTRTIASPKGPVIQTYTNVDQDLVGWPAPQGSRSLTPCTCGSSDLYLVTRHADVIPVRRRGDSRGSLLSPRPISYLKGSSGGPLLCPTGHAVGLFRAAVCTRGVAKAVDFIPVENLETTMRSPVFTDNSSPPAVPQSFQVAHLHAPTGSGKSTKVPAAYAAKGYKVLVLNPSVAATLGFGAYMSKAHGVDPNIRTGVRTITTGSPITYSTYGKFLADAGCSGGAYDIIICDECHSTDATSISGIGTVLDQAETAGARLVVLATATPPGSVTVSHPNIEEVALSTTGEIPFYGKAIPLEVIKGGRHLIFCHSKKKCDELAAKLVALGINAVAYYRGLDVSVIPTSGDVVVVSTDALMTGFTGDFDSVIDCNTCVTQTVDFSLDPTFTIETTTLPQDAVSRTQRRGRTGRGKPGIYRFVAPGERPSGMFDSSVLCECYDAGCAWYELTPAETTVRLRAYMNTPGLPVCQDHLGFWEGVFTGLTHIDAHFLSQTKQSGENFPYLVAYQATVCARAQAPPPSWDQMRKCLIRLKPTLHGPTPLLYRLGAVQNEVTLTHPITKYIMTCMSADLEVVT
Source text: NS3-NS4 inhibition activity can be determined using known assay methods. For example, NS3/NS4 complexes may be formed and inhibitory concentrations of test compounds determined as described in U.S. Patent Application Publication Number 2007/0054842 paragraph numbers 1497-1509, which is incorporated herein by reference in its entirety. Similarly, hepatitis C replicon EC50 may be determined using known assay methods such as described in U.S. Patent Application Publication Number 2007/0054842 paragraph numbers 1510-1515, which is incorporated herein by reference in its entirety. Assays may be conducted at ambient temperature (23° C.) in assay buffer containing 50 mM Tris-HCl, pH 7.5, 15% glycerol, 0.6 mM Lauryldimethylamine Oxide (LDAO), 25 μM NS4A peptide, and 10 mM Dithiothreitol (DTT).

| Compound | EC50 [1] [nM] | IC50 [2] [nM] |
| --- | --- | --- |
| CC(C)n1c(O[C@@H]2C[C@H]3C(=O)N[C@]4(C(=O)NS(=O)(=O)C5(C)CC5)C[C@H]4/C=C\CCCCC[C@H](NC(=O)OC(C)(C)C)C(=O)N3C2)nc2c(-c3nc(-c4cccc(Cl)c4)cs3)cccc21 [Compound 101] | 10 to 100 | < 10 |
| COc1ccccc1-c1csc(-c2cccc3c2nc(O[C@@H]2C[C@H]4C(=O)N[C@]5(C(=O)NS(=O)(=O)C6(C)CC6)C[C@H]5/C=C\CCCCC[C@H](NC(=O)OC(C)(C)C)C(=O)N4C2)n3C(C)C)n1 [Compound 102] | < 10 | < 10 |
| COc1cccc(-c2csc(-c3cccc4c3nc(O[C@@H]3C[C@H]5C(=O)N[C@]6(C(=O)NS(=O)(=O)C7(C)CC7)C[C@H]6/C=C\CCCCC[C@H](NC(=O)OC(C)(C)C)C(=O)N5C3)n4C(C)C)n2)c1 [Compound 103] | < 10 | < 10 |
| CC(C)n1c(O[C@@H]2C[C@H]3C(=O)N[C@]4(C(=O)NS(=O)(=O)C5(C)CC5)C[C@H]4/C=C\CCCCC[C@H](NC(=O)OC(C)(C)C)C(=O)N3C2)nc2c(-c3nc(-c4cccc(F)c4)cs3)cccc21 [Compound 104] | 10 to 100 | < 10 |
| CC(C)n1c(O[C@@H]2C[C@H]3C(=O)N[C@]4(C(=O)NS(=O)(=O)C5(C)CC5)C[C@H]4/C=C\CCCCC[C@H](NC(=O)OC(C)(C)C)C(=O)N3C2)nc2c(-c3nc(-c4ccc(Br)cc4)cs3)cccc21 [Compound 106] | > 100 | < 10 |
| CC(C)n1c(O[C@@H]2C[C@H]3C(=O)N[C@]4(C(=O)NS(=O)(=O)C5(C)CC5)C[C@H]4/C=C\CCCCC[C@H](NC(=O)OC(C)(C)C)C(=O)N3C2)nc2c(-c3nc(-c4ccc(Cl)c(Cl)c4)cs3)cccc21 [Compound 107] | 10 to 100 | < 10 |
| CC(C)n1c(O[C@@H]2C[C@H]3C(=O)N[C@]4(C(=O)NS(=O)(=O)C5(C)CC5)C[C@H]4/C=C\CCCCC[C@H](NC(=O)OC(C)(C)C)C(=O)N3C2)nc2c(-c3nc(-c4ccc(F)c(F)c4)cs3)cccc21 [Compound 108] | < 10 | < 10 |
| CC(C)n1c(O[C@@H]2C[C@H]3C(=O)N[C@]4(C(=O)NS(=O)(=O)C5(C)CC5)C[C@H]4/C=C\CCCCC[C@H](NC(=O)OC(C)(C)C)C(=O)N3C2)nc2c(-c3nc(-c4ccc(F)c(C(F)(F)F)c4)cs3)cccc21 [Compound 109] | 10 to 100 | < 10 |
| CC(C)n1c(O[C@@H]2C[C@H]3C(=O)N[C@]4(C(=O)NS(=O)(=O)C5(C)CC5)C[C@H]4/C=C\CCCCC[C@H](NC(=O)OC(C)(C)C)C(=O)N3C2)nc2c(-c3nc(-c4ccc(OC(F)(F)F)cc4)cs3)cccc21 [Compound 110] | > 100 | < 10 |
| CC(C)n1c(O[C@@H]2C[C@H]3C(=O)N[C@]4(C(=O)NS(=O)(=O)C5(C)CC5)C[C@H]4/C=C\CCCCC[C@H](NC(=O)OC(C)(C)C)C(=O)N3C2)nc2c(-c3nc(-c4ccc(F)cc4F)cs3)cccc21 [Compound 111] | 10 to 100 | < 10 |
| CC(C)n1c(O[C@@H]2C[C@H]3C(=O)N[C@]4(C(=O)NS(=O)(=O)C5(C)CC5)C[C@H]4/C=C\CCCCC[C@H](NC(=O)OC(C)(C)C)C(=O)N3C2)nc2c(-c3nc(-c4ccc5c(c4)OCCO5)cs3)cccc21 [Compound 112] | < 10 | < 10 |
| CC(C)n1c(O[C@@H]2C[C@H]3C(=O)N[C@]4(C(=O)NS(=O)(=O)C5(C)CC5)C[C@H]4/C=C\CCCCC[C@H](NC(=O)OC(C)(C)C)C(=O)N3C2)nc2c(-c3nc(-c4ccc(C(C)(C)C)cc4)cs3)cccc21 [Compound 113] | 10 to 100 | < 10 |
| Cc1ccccc1Cc1csc(-c2cccc3c2nc(O[C@@H]2C[C@H]4C(=O)N[C@]5(C(=O)NS(=O)(=O)C6(C)CC6)C[C@H]5/C=C\CCCCC[C@H](NC(=O)OC(C)(C)C)C(=O)N4C2)n3C(C)C)n1 [Compound 114] | < 10 | < 10 |
| COc1ccccc1Cc1csc(-c2cccc3c2nc(O[C@@H]2C[C@H]4C(=O)N[C@]5(C(=O)NS(=O)(=O)C6(C)CC6)C[C@H]5/C=C\CCCCC[C@H](NC(=O)OC(C)(C)C)C(=O)N4C2)n3C(C)C)n1 [Compound 115] | < 10 | < 10 |
| CC(C)c1ccc(Cc2csc(-c3cccc4c3nc(O[C@@H]3C[C@H]5C(=O)N[C@]6(C(=O)NS(=O)(=O)C7(C)CC7)C[C@H]6/C=C\CCCCC[C@H](NC(=O)OC(C)(C)C)C(=O)N5C3)n4C(C)C)n2)cc1 [Compound 116] | 10 to 100 | < 10 |
| CC(C)n1c(O[C@@H]2C[C@H]3C(=O)N[C@]4(C(=O)NS(=O)(=O)C5(C)CC5)C[C@H]4/C=C\CCCCC[C@H](NC(=O)OC(C)(C)C)C(=O)N3C2)nc2c(-c3nc(Cc4cccc(Br)c4)cs3)cccc21 [Compound 117] | 10 to 100 | < 10 |
| CC(C)n1c(O[C@@H]2C[C@H]3C(=O)N[C@]4(C(=O)NS(=O)(=O)C5(C)CC5)C[C@H]4/C=C\CCCCC[C@H](NC(=O)OC(C)(C)C)C(=O)N3C2)nc2c(-c3nc(Cc4ccc(-c5ccccc5)cc4)cs3)cccc21 [Compound 118] | < 10 | < 10 |

| Compound | EC50 [1] [nM] | IC50 [2] [nM] |
| --- | --- | --- |
| CC(C)n1c(O[C@@H]2C[C@H]3C(=O)N[C@]4(C(=O)NS(=O)(=O)C5(C)CC5)C[C@H]4/C=C\CCCCC[C@H](NC(=O)OC(C)(C)C)C(=O)N3C2)nc2c(-c3nc(Cc4cccc(C(F)(F)F)c4)cs3)cccc21 [Compound 119] | 10 to 100 | < 10 |
| CC(C)n1c(O[C@@H]2C[C@H]3C(=O)N[C@]4(C(=O)NS(=O)(=O)C5(C)CC5)C[C@H]4/C=C\CCCCC[C@H](NC(=O)OC(C)(C)C)C(=O)N3C2)nc2c(-c3nc(Cc4cccc(OC(F)(F)F)c4)cs3)cccc21 [Compound 120] | 10 to 100 | < 10 |
| CC(C)n1c(O[C@@H]2C[C@H]3C(=O)N[C@]4(C(=O)NS(=O)(=O)C5(C)CC5)C[C@H]4/C=C\CCCCC[C@H](NC(=O)OC(C)(C)C)C(=O)N3C2)nc2c(-c3nc(Cc4ccc(OC(F)(F)F)cc4)cs3)cccc21 [Compound 121] | 10 to 100 | < 10 |
| CC(C)n1c(O[C@@H]2C[C@H]3C(=O)N[C@]4(C(=O)NS(=O)(=O)C5(C)CC5)C[C@H]4/C=C\CCCCC[C@H](NC(=O)OC(C)(C)C)C(=O)N3C2)nc2c(-c3nc(Cc4ccc(Cl)cc4)cs3)cccc21 [Compound 122] | > 100 | < 10 |
| COc1cccc(Cc2csc(-c3cccc4c3nc(O[C@@H]3C[C@H]5C(=O)N[C@]6(C(=O)NS(=O)(=O)C7(C)CC7)C[C@H]6/C=C\CCCCC[C@H](NC(=O)OC(C)(C)C)C(=O)N5C3)n4C(C)C)n2)c1 [Compound 123] | < 10 | < 10 |
| COc1ccc(Cc2csc(-c3cccc4c3nc(O[C@@H]3C[C@H]5C(=O)N[C@]6(C(=O)NS(=O)(=O)C7(C)CC7)C[C@H]6/C=C\CCCCC[C@H](NC(=O)OC(C)(C)C)C(=O)N5C3)n4C(C)C)n2)cc1 [Compound 124] | < 10 | < 10 |
| CC(C)n1c(O[C@@H]2C[C@H]3C(=O)N[C@]4(C(=O)NS(=O)(=O)C5(C)CC5)C[C@H]4/C=C\CCCCC[C@H](NC(=O)OC(C)(C)C)C(=O)N3C2)nc2c(-c3csc(N4CCCC4)n3)cccc21 [Compound 125] | < 10 | < 10 |
| CC(C)n1c(O[C@@H]2C[C@H]3C(=O)N[C@]4(C(=O)NS(=O)(=O)C5(C)CC5)C[C@H]4/C=C\CCCCC[C@H](NC(=O)OC(C)(C)C)C(=O)N3C2)nc2c(-c3cnccn3)cccc21 [Compound 126] | < 10 | < 10 |
| CC(C)n1c(O[C@@H]2C[C@H]3C(=O)N[C@]4(C(=O)NS(=O)(=O)C5(C)CC5)C[C@H]4/C=C\CCCCC[C@H](NC(=O)OC(C)(C)C)C(=O)N3C2)nc2c(-c3csc(N4CCN(C)CC4)n3)cccc21 [Compound 127] | < 10 | < 10 |
| CC(C)n1c(O[C@@H]2C[C@H]3C(=O)N[C@]4(C(=O)NS(=O)(=O)C5(C)CC5)C[C@H]4/C=C\CCCCC[C@H](NC(=O)OC(C)(C)C)C(=O)N3C2)nc2c(-c3cncc(N4CCCC4)n3)cccc21 [Compound 128] | < 10 | < 10 |
| CC(C)n1c(O[C@@H]2C[C@H]3C(=O)N[C@]4(C(=O)NS(=O)(=O)C5(C)CC5)C[C@H]4/C=C\CCCCC[C@H](NC(=O)OC(C)(C)C)C(=O)N3C2)nc2c(-c3cscn3)cccc21 [Compound 129] | < 10 | < 10 |
| CC(C)n1c(O[C@@H]2C[C@H]3C(=O)N[C@]4(C(=O)NS(=O)(=O)N(C)C)C[C@H]4/C=C\CCCCC[C@H](NC(=O)OC(C)(C)C)C(=O)N3C2)nc2c(-c3nc(-c4cccc(Cl)c4)cs3)cccc21 [Compound 130] | 10 to 100 | < 10 |
| COc1ccccc1-c1csc(-c2cccc3c2nc(O[C@@H]2C[C@H]4C(=O)N[C@]5(C(=O)NS(=O)(=O)N(C)C)C[C@H]5/C=C\CCCCC[C@H](NC(=O)OC(C)(C)C)C(=O)N4C2)n3C(C)C)n1 [Compound 131] | 10 to 100 | < 10 |
| COc1cccc(-c2csc(-c3cccc4c3nc(O[C@@H]3C[C@H]5C(=O)N[C@]6(C(=O)NS(=O)(=O)N(C)C)C[C@H]6/C=C\CCCCC[C@H](NC(=O)OC(C)(C)C)C(=O)N5C3)n4C(C)C)n2)c1 [Compound 132] | 10 to 100 | < 10 |
| CC(C)n1c(O[C@@H]2C[C@H]3C(=O)N[C@]4(C(=O)NS(=O)(=O)N(C)C)C[C@H]4/C=C\CCCCC[C@H](NC(=O)OC(C)(C)C)C(=O)N3C2)nc2c(-c3nc(-c4cccc(F)c4)cs3)cccc21 [Compound 133] | 10 to 100 | < 10 |
| CC(C)n1c(O[C@@H]2C[C@H]3C(=O)N[C@]4(C(=O)NS(=O)(=O)N(C)C)C[C@H]4/C=C\CCCCC[C@H](NC(=O)OC(C)(C)C)C(=O)N3C2)nc2c(-c3nc(-c4ccc(F)cc4)cs3)cccc21 [Compound 134] | 10 to 100 | < 10 |
